6 compounds from article PMC13266984 (Journal of medicinal chemistry, 2026) can be followed below.

Data set [1] is described as follows: pION μSOL kinetic aqueous solubility. Conditions: in words; pH7.4. Format: physicochemical.
The target in a further data set is T1, OE19 (3A1) (Homo sapiens, UniProt P30838).
T1 sequence (P30838 1-453): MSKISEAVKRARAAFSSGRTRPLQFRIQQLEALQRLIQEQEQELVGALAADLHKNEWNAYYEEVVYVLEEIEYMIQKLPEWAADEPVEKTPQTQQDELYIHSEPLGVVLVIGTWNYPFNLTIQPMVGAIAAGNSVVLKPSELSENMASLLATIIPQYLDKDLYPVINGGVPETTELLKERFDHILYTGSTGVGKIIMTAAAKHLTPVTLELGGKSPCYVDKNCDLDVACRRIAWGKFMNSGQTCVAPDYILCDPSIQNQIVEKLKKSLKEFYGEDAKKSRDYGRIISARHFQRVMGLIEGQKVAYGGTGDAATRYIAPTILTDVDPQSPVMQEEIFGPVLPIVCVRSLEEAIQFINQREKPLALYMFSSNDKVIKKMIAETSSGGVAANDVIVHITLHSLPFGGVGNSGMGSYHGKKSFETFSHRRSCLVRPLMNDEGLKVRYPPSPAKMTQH
Put plainly: Cellular ALDEFLUOR assay in OE19 cells (preferential ALDH3A1 expression). Conditions: for Cell_Efficacy: Table S5, OE19 cells; for Cell_CC-v2: Table S5, cellular curve class; for IC50: cellular IC50 (Aldefluor), OE19 cells.

Another data set concerns the target T2, Human ALDH3A1 (Homo sapiens, UniProt P30838).
T2 sequence (P30838 1-453): T1 sequence (P30838 1-453)
Put plainly: ALDH3A1 biochemical assay (benzaldehyde/NADP+, diaphorase-resazurin readout, 1,536-well). Conditions: for IC50Ratio: 20X[SUB] vs 1X[SUB] benzaldehyde; for Efficacy: Table S5, biochemical; for CC-v2: Table S5, biochemical curve class; for LLE: Table S7, pAC50 − cLogP; for inhibition mechanism (benzaldehyde substrate shift): retested at 4,000 μM benzaldehyde. On the technique in general: Alamar Blue is a resazurin reagent that responds to reducing activity.

Data set [2] is described as follows: Metabolic stability in rat liver microsome fractions. Format: in vitro ADME. Conditions: in words.
[3] abbreviates: 20X[SUB] IC50 [µM], benzaldehyde 4,000 µM (~20× Km), NADP+ 1,000 µM.

Structures are written as SMILES. Several values for one entry are separate records, joined by “and”; a condition that tells them apart may be missing. Equal values may be shown once.

For `O=C(NCc1cccc(C2CC2)c1)c1csc(N2CCN(c3cccc(C(F)(F)F)c3)CC2)n1` [Compound 13], the kinetic aqueous solubility entry in data set [1] was “limited kinetic aqueous solubility”. Moreover, on OE19 (3A1), the activity was half-maximal at 13.6 nM (AC50); the Cell_Efficacy is -65.41; the Cell_CC-v2 was -1.2; the IC50 was 13.6 nM and 14 nM and ~14 nM. On Human ALDH3A1, this compound had an AC50 of 1.1 nM, an IC50Ratio of 28, an Efficacy of -107.26 and a CC-v2 of -1.1. At Human ALDH3A1, the LLE was 3.663 and the “inhibition mechanism (benzaldehyde substrate shift)” value is recorded as “consistent with substrate-competitive inhibition”. On Human ALDH3A1 (setting [3]), this compound returned an IC50 of 0.0316 µM. Also, the half-maximal inhibitory concentration (IC50) at Human ALDH3A1 (ALDH3A1 biochemical IC50) is 0.001 µM.

In the case of `Cc1nc(-c2cccc(CNC(=O)c3csc(N4CCN(c5cccc(C(F)(F)F)c5)CC4)n3)c2)cs1` [Compound 14], the microsomal stability entry in data set [2] is given as “only moderate microsomal stability”. Moreover, in data set [1], the kinetic aqueous solubility result is “limited kinetic aqueous solubility”. Besides, on OE19 (3A1), the AC50 worked out at 3.8 nM; the Cell_Efficacy is -94.02; the Cell_CC-v2 was -1.1; the IC50 is 4 nM and 3.84 nM and ~4 nM. On Human ALDH3A1, the concentration at half-maximal activity (AC50) stood at 31.6 nM, the IC50Ratio came out at 32, the Efficacy is -99.22 and the CC-v2 is recorded as -1.1. Also, on Human ALDH3A1, the LLE was found to be 1.65 and the “inhibition mechanism (benzaldehyde substrate shift)” value is on record as “consistent with substrate-competitive inhibition”. The compound also yielded a 50% inhibitory concentration (IC50) at Human ALDH3A1 (setting [3]) of 1 µM. Besides, the IC50 on Human ALDH3A1 (ALDH3A1 biochemical IC50) was 0.0316 µM and 0.032 µM and ~0.032 µM.

At OE19 (3A1), `Cc1ccccc1-c1cccc(CNC(=O)c2csc(N3CCN(c4cccc(C(F)(F)F)c4)CC3)n2)c1` [NCGC01407985-01] yielded an AC50 of 91 nM, a Cell_Efficacy of -83.99 and a Cell_CC-v2 of -1.1. In addition, at Human ALDH3A1, half-maximal activity (AC50) was put at 75 nM, the Efficacy is given as -78.48 and the CC-v2 is -1.2.

Regarding `O=C(NCCc1cccc(OCCCc2ccccc2)c1)c1csc(N2CCN(c3cccc(C(F)(F)F)c3)CC2)n1` [NCGC01407986-01], at OE19 (3A1), the activity was half-maximal at 501 nM (AC50), the Cell_Efficacy is on record as -92.16 and the Cell_CC-v2 is recorded as -1.1. For the same compound, on Human ALDH3A1, the AC50 was 562 nM, the Efficacy is -31.39 and the CC-v2 is recorded as -1.2.

Regarding `CC(C)(O)c1ccc(CNC(=O)c2csc(N3CCN(c4cccc(C(F)(F)F)c4)CC3)n2)cc1` [NCGC01408044-01], at OE19 (3A1), the AC50 is 11.2 nM, the Cell_Efficacy is listed as -68.37 and the Cell_CC-v2 is 5. On Human ALDH3A1, this compound yielded a half-maximal activity concentration (AC50) of 891 nM, an Efficacy of -74.78 and a CC-v2 of -1.2.

On OE19 (3A1), `Cc1ccc(C)n1-c1ccc(CNC(=O)c2csc(N3CCN(c4cccc(C(F)(F)F)c4)CC3)n2)cc1` [NCGC01408046-01] displayed a Cell_Efficacy of -23.84 and a Cell_CC-v2 of 4. Also, at Human ALDH3A1, the AC50 is 15800 nM, the Efficacy is reported as -91.30 and the CC-v2 is given as -1.1.

By AC50 is commonly meant the concentration giving half of the maximal activity seen. Usually IC50 stands for the point on the concentration scale where inhibition reaches its midpoint.
